Tested on: HT-29 cells
Assay: HT-29 cell necrosis/necroptosis inhibition (TNF-α + SMAC mimetic + zVAD-FMK; CellTiter-Glo cell viability)
Format: cell-based
Details: Homo sapiens, HT-29, 20 h, read-out: EC50 (Cell activity; Necrosis/Necroptosis Inhibitory Activity, Compounds 1-142)
Procedure, shortened: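 HT-29 cells (~5,000/well) were switched to FBS-free McCOY's 5A holding TNF-α (10 ng/ml), SMAC mimetic (6 μM) and zVAD-FMK (10 μM), then dosed with a 10-point 1:3 series for 20 h at 37 °C. CellTiter-Glo luminescence gave viability; geometric mean EC50 from duplicates.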

Row | SMILES | EC50 [nM]
1 | Cc1nn(C[C@@H]2CO2)c(C)c1-c1nc(N2CCN(C(=O)N3N=CC[C@H]3c3cc(F)cc(C#N)c3)CC2)ncc1F [Compound 133, 3-((S)-1-(4-(4-(3,5-dimethyl-1-(((R)-oxiran-2-yl)methyl)-1H-pyrazol-4-yl)-5-fluoropyrimidin-2-yl)piperazine-1-carbonyl)-4,5-dihydro-1H-pyrazol-5-yl) fluorobenzonitrile] | 0.1 to 100

Same assay, conditions: Homo sapiens; HT-29 cells, TNF-α 10 ng/ml + SMAC mimetic 6 μM + zVAD-FMK 10 μM, 20 hours; geometric mean, 10 points in duplicate; read-out: EC50 (Cell activity; Necrosis/Necroptosis Inhibitory Activity, Compounds 1-142)

Row | SMILES | EC50 [nM]
2 | CCOC(=O)c1nc(C)n(-c2nc(N3CCN(C(=O)N4N=CC[C@H]4c4cc(F)cc(C#N)c4)CC3)ncc2F)n1 [Compound 129, ethyl (S)-1-(2-(4-(5-(3-cyano-5-fluorophenyl)-4,5-dihydro-1H-pyrazole-1-carbonyl)piperazin-1-yl)-5-fluoropyrimidin-4-yl)-5-methyl-1H-1,2,4-triazole-3-carboxylate] | 0.1 to 100
3 | Cc1ncc(-c2nc(N3CCN(C(=O)N4N=CC[C@H]4c4cc(F)cc(F)c4)CC3)ncc2F)s1 [Compound 56, (S)-(5-(3,5-difluorophenyl)-4,5-dihydro-1H-pyrazol-1-yl)(4-(5-fluoro-4-(2-methylthiazol-5-yl)pyrimidin-2-yl)piperazin-1-yl)methanone] | 0.1 to 100
4 | O=C(N1CCN(c2nccc(-c3cc[nH]n3)n2)CC1)N1N=CC[C@H]1c1cc(F)cc(F)c1 [Compound 33, (S)-(4-(4-(1H-pyrazol-3-yl)pyrimidin-2-yl)piperazin-1-yl)(5-(3,5-difluorophenyl)-4,5-dihydro-1H-pyrazol-1-yl)methanone] | 0.1 to 100
5 | Cn1cc(-c2nc(N3CCN(C(=O)N4N=CC[C@H]4c4cc(F)cc(C#N)c4)CC3)ncc2F)nn1 [Compound 40] | 0.1 to 100
6 | N#Cc1cc(F)cc([C@@H]2CC=NN2C(=O)N2CCN(c3ncc(F)c(-n4ccc(C#N)n4)n3)CC2)c1 [Compound 128, (S)-1-(2-(4-(5-(3-cyano-5-fluorophenyl)-4,5-dihydro-1H-pyrazole-1-carbonyl)piperazin-1-yl)-5-fluoropyrimidin-4-yl)-1H-pyrazole-3-carbonitrile] | 0.1 to 100
7 | Cc1nn(CCO)c(C)c1-c1nc(N2CCN(C(=O)N3N=CC[C@H]3c3cc(F)cc(C#N)c3)CC2)ncc1F [Compound 124, (S)-3-fluoro-5-(1-(4-(5-fluoro-4-(1-(2-hydroxyethyl)-3,5-dimethyl-1H-pyrazol-4-yl)pyrimidin-2-yl)piperazine-1-carbonyl)-4,5-dihydro-1H-pyrazol-5-yl)benzonitrile] | 0.1 to 100
8 | Cn1cccc(-c2nc(N3CCN(C(=O)N4N=CC[C@H]4c4cc(F)cc(F)c4)CC3)ncc2F)c1=O [Compound 88, (S)-3-(2-(4-(5-(3,5-difluorophenyl)-4,5-dihydro-1H-pyrazole-1-carbonyl)piperazin-1-yl)-5-fluoropyrimidin-4-yl)-1-methylpyridin-2(1H)-one] | 0.1 to 100
9 | Cc1[nH]nnc1-c1nc(N2CCN(C(=O)N3N=CC[C@H]3c3cc(F)cc(F)c3)CC2)ncc1F [Compound 30, (S)-(5-(3,5-difluorophenyl)-4,5-dihydro-1H-pyrazol-1-yl)(4-(5-fluoro-4-(5-methyl-1H-1,2,3-triazol-4-yl)pyrimidin-2-yl)piperazin-1-yl)methanone] | 0.1 to 100

Same assay, conditions: Homo sapiens; HT-29 cells, TNF-α 10 ng/ml + SMAC mimetic 6 μM + zVAD-FMK 10 μM, 20 hours; geometric mean, 10 points in duplicate; read-out: EC50 (Cell activity; Necrosis/Necroptosis Inhibitory Activity, Compounds 143-323)

Row | SMILES | EC50 [nM]
10 | CCn1cnn(-c2nc(N3CCN(C(=O)N4N=CC[C@H]4c4cc(F)cc(C#N)c4)CC3)ncc2F)c1=O [Compound 200, (S)-3-(1-(4-(4-(4-ethyl-5-oxo-4,5-dihydro-1H-1,2,4-triazol-1-yl)-5-fluoropyrimidin-2-yl)piperazine-1-carbonyl)-4,5-dihydro-1H-pyrazol-5-yl)-5-fluorobenzonitrile] | 0.1 to 100
11 | Cc1nc(CO)nn1-c1nc(N2CCN(C(=O)N3N=CC[C@H]3c3cncc(F)c3)CC2)ncc1F [Compound 250, (S)-(4-(5-fluoro-4-(3-(hydroxymethyl)-5-methyl-1H-1,2,4-triazol-1-yl)pyrimidin-2-yl)piperazin-1-yl)(5-(5-fluoropyridin-3-yl)-4,5-dihydro-1H-pyrazol-1-yl)methanone] | 0.1 to 100
12 | Cc1nn(-c2nc(N3CCN(C(=O)N4N=CC[C@H]4c4cc(F)cc(C#N)c4)CC3)ncc2F)c(C)c1[N+](=O)[O-] [Compound 191, (S)-3-(1-(4-(4-(3,5-dimethyl-4-nitro-1H-pyrazol-1-yl)-5-fluoropyrimidin-2-yl)piperazine-1-carbonyl)-4,5-dihydro-1H-pyrazol-5-yl)-5-fluorobenzonitrile] | 0.1 to 100
13 | Cc1nn(-c2ccnc(N3CCN(C(=O)N4N=CC[C@H]4c4cncc(F)c4)CC3)n2)c(C)c1C#N [Compound 283, (S)-1-(2-(4-(5-(5-fluoropyridin-3-yl)-4,5-dihydro-1H-pyrazole-1-carbonyl)piperazin-1-yl)pyrimidin-4-yl)-3,5-dimethyl-1H-pyrazole-4-carbonitrile] | 0.1 to 100
14 | Cc1nn(-c2nc(N3CCN(C(=O)N4N=CC[C@H]4c4cc(F)cc(C#N)c4)CC3)ncc2F)c(C)c1C(N)=O [Compound 277, (S)-1-(2-(4-(5-(3-cyano-5-fluorophenyl)-4,5-dihydro-1H-pyrazole-1-carbonyl)piperazin-1-yl)-5-fluoropyrimidin-4-yl)-3,5-dimethyl-1H-pyrazole carboxamide] | 0.1 to 100
15 | Cc1cnn(C)c1-c1cc(N2CCN(C(=O)N3N=CC[C@H]3c3cc(F)cc(C#N)c3)CC2)c(F)cn1 [Compound 269, (S)-3-(1-(4-(2-(1,4-dimethyl-1H-pyrazol-5-yl)-5-fluoropyridin-4-yl)piperazine-1-carbonyl)-4,5-dihydro-1H-pyrazol-5-yl)-5-fluorobenzonitrile] | 0.1 to 100
16 | Cc1c(N)nn(C)c1-c1nc(N2CCN(C(=O)N3N=CC[C@H]3c3cc(F)cc(C#N)c3)CC2)ncc1F [Compound 153, (S)-3-(1-(4-(4-(3-amino-1,4-dimethyl-1H-pyrazol-5-yl)-5-fluoropyrimidin-2-yl)piperazine-1-carbonyl)-4,5-dihydro-1H-pyrazol-5-yl)-5-fluorobenzonitrile] | 0.1 to 100
17 | Cc1nc(C2CC=NN2C(=O)N2CCN(c3cc(-c4c(C)cnn4C)ncc3F)CC2)cs1 (centres unmarked) [Compound 156, (4-(2-(1,4-dimethyl-1H-pyrazol-5-yl)-5-fluoropyridin-4-yl)piperazin-1-yl)(5-(2-methylthiazol-4-yl)-4,5-dihydro-1H-pyrazol-1-yl)methanone] | 100 to 1000
18 | Cc1nn(-c2nc(N3CCN(C(=O)N4N=CC[C@H]4c4cc(F)cc(C#N)c4)CC3)ncc2F)c(C)c1NC(=O)C1CC1 [Compound 192, (S)—N-(1-(2-(4-(5-(3-cyano-5-fluorophenyl)-4,5-dihydro-1H-pyrazole-1-carbonyl)piperazin-1-yl)-5-fluoropyrimidin-4-yl)-3,5-dimethyl-1H-pyrazol-4-yl)cyclopropanecarboxamide] | 0.1 to 100
19 | Cc1cnn(C)c1-c1ncc(F)c(N2CCN(C(=O)N3N=CCC3c3ncccc3Cl)CC2)n1 (centres unmarked) [Compound 261, (5-(3-chloropyridin-2-yl)-4,5-dihydro-1H-pyrazol-1-yl)(4-(2-(1,4-dimethyl-1H-pyrazol-5-yl)-5-fluoropyrimidin-4-yl)piperazin-1-yl)methanone] | 0.1 to 100
20 | COc1cnc(N2CCN(C(=O)N3N=CC[C@H]3c3cc(F)cc(C#N)c3)CC2)nc1-c1ncnn1C [Compound 150, (S)-3-fluoro-5-(1-(4-(5-methoxy-4-(1-methyl-1H-1,2,4-triazol-5-yl)pyrimidin-2-yl)piperazine-1-carbonyl)-4,5-dihydro-1H-pyrazol-5-yl)benzonitrile] | 0.1 to 100
21 | O=C(N1CCN(c2ncc(F)c(-n3nccc3C(F)(F)F)n2)CC1)N1N=CC[C@H]1c1cncc(F)c1 [Compound 308, (S)-(4-(5-fluoro-4-(5-(trifluoromethyl)-1H-pyrazol-1-yl)pyrimidin-2-yl)piperazin-1-yl)(5-(5-fluoropyridin-3-yl)-4,5-dihydro-1H-pyrazol-1-yl)methanone] | 0.1 to 100
22 | CCS(=O)(=O)c1c(C)nn(-c2nc(N3CCN(C(=O)N4N=CC[C@H]4c4cc(F)cc(C#N)c4)CC3)ncc2F)c1C [Compound 205, (S)-3-(1-(4-(4-(4-(ethylsulfonyl)-3,5-dimethyl-1H-pyrazol-1-yl)-5-fluoropyrimidin-2-yl)piperazine-1-carbonyl)-4,5-dihydro-1H-pyrazol-5-yl)-5-fluorobenzonitrile] | 0.1 to 100
23 | Cc1nn(S(C)(=O)=O)c(C)c1-c1nc(N2CCN(C(=O)N3N=CC[C@H]3c3cc(F)cc(C#N)c3)CC2)ncc1F [Compound 208, (S)-3-(1-(4-(4-(3,5-dimethyl-1-(methylsulfonyl)-1H-pyrazol-4-yl)-5-fluoropyrimidin-2-yl)piperazine-1-carbonyl)-4,5-dihydro-1H-pyrazol-5-yl)-5-fluorobenzonitrile] | 0.1 to 100
24 | Cn1ncnc1-c1ccc(F)c(N2CCN(C(=O)N3N=CCC3c3ncccc3Cl)CC2)n1 (centres unmarked) [Compound 222, (5-(3-chloropyridin-2-yl)-4,5-dihydro-1H-pyrazol-1-yl)(4-(3-fluoro-6-(1-methyl-1H-1,2,4-triazol-5-yl)pyridin-2-yl)piperazin-1-yl)methanone] | 0.1 to 100
25 | Cc1nc(C)n(-c2ccnc(N3CCN(C(=O)N4N=CC[C@H]4c4cc(F)cc(C#N)c4)CC3)n2)n1 [Compound 243, (S)-3-(1-(4-(4-(3,5-dimethyl-1H-1,2,4-triazol-1-yl)pyrimidin-2-yl)piperazine-1-carbonyl)-4,5-dihydro-1H-pyrazol-5-yl)-5-fluorobenzonitrile] | 0.1 to 100
26 | Cc1nc(C)n(-c2nc(N3CCN(C(=O)N4N=CC[C@H]4c4cc(F)cc(F)c4)CC3)ncc2Cl)n1 [Compound 259, (S)-(4-(5-chloro-4-(3,5-dimethyl-1H-1,2,4-triazol-1-yl)pyrimidin-2-yl)piperazin-1-yl)(5-(3,5-difluorophenyl)-4,5-dihydro-1H-pyrazol-1-yl)methanone] | 0.1 to 100

Source: patent US12454529B2, “Piperazine cyclic ureas” (SIRONAX LTD., priority 2020, dated 2025)
